The values below come from patent US6566409B1, “Lock and key micelles” (University of South Florida, priority 1994, dated 2003).

Structures are written as SMILES.

The data set in a line: Solubility of barbituric acid in CD3CN, free and with bisamidopyridine dendrimers. Type of data set: physicochemical. From the text:
Chemical shift changers for the complexed NH moieties, even in this competing solvent, corresponded to ca. 0.1 ppm for both generation dendrimers.

As for `O=C1CC(=O)NC(=O)N1` [barbituric acid], where the note is “free”, the “solubility in CD3CN” value is reported as “sparingly soluble”. In addition, the “solubility in CD3CN in the presence of the bisamidopyridine dendrimers” value (with bisamidopyridine dendrimers) is “freely soluble to the limit of complementary complexation”.
